Legend:
Experiment in all cases: relative viability (nuclei count vs DMSO), 5 days (fraction); higher = more cells survive
CUDC-101 + Decitabine = compound: C#Cc1cccc(Nc2ncnc3cc(OC)c(OCCCCCCC(=O)NO)cc23)c1 [CUDC-101] + Nc1ncn([C@H]2C[C@H](O)[C@@H](CO)O2)c(=O)n1 [Decitabine] (partner 2 µM)
Outline: (§1)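 Lung cancer cell lines were pin-tool dosed in 1536-well plates on the day after seeding, with either a lone drug or a fixed anchor-drug dose plus five library-drug doses (not always all listed) in √10 steps. Nuclei were counted on 4× images after 5 days. Relative viability is the ratio of treated-well to vehicle-well nuclei counts, with each value a median of duplicate plates.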

CUDC-101 + Phenformin = compound: C#Cc1cccc(Nc2ncnc3cc(OC)c(OCCCCCCC(=O)NO)cc23)c1 [CUDC-101] + N=C(N)NC(=N)NCCc1ccccc1 [Phenformin] (partner 250 µM)
Outline: as §1

NVP-TAE684 + Pictilisib = compound: COc1cc(N2CCC(N3CCN(C)CC3)CC2)ccc1Nc1ncc(Cl)c(Nc2ccccc2S(=O)(=O)C(C)C)n1 [NVP-TAE684] + CS(=O)(=O)N1CCN(Cc2cc3nc(-c4cccc5[nH]ncc45)nc(N4CCOCC4)c3s2)CC1 [Pictilisib] (partner 1 µM)
Outline: as §1

Vandetanib + Tozasertib = compound: COc1cc2/c(=N/c3ccc(Br)cc3F)nc[nH]c2cc1OCC1CCN(C)CC1 [Vandetanib] + Cc1cc(Nc2cc(N3CCN(C)CC3)nc(Sc3ccc(NC(=O)C4CC4)cc3)n2)n[nH]1 [Tozasertib] (partner 0.1 µM)
Outline: as §1

Cell Line | relative viability (CUDC-101 + Decitabine; first compound 0.01 µM) | relative viability (CUDC-101 + Decitabine; first compound 0.03162 µM) | relative viability (CUDC-101 + Decitabine; first compound 0.1 µM) | relative viability (CUDC-101 + Decitabine; first compound 0.3162 µM) | relative viability (CUDC-101 + Decitabine; first compound 1 µM) | relative viability (CUDC-101 + Phenformin; first compound 0.01 µM) | relative viability (CUDC-101 + Phenformin; first compound 0.03162 µM) | relative viability (CUDC-101 + Phenformin; first compound 0.1 µM) | relative viability (CUDC-101 + Phenformin; first compound 0.3162 µM) | relative viability (CUDC-101 + Phenformin; first compound 1 µM) | relative viability (NVP-TAE684 + Pictilisib; first compound 0.2 µM) | relative viability (NVP-TAE684 + Pictilisib; first compound 0.6325 µM) | relative viability (NVP-TAE684 + Pictilisib; first compound 2 µM) | relative viability (Vandetanib + Tozasertib; first compound 0.02 µM) | relative viability (Vandetanib + Tozasertib; first compound 0.06325 µM) | relative viability (Vandetanib + Tozasertib; first compound 0.2 µM) | relative viability (Vandetanib + Tozasertib; first compound 0.6325 µM) | relative viability (Vandetanib + Tozasertib; first compound 2 µM)
RERF-LC-KJ | 0.648 | 0.724 | 0.711 | 0.588 | 0.469 | 0.419 | 0.441 | 0.418 | 0.387 | 0.387 | 0.613 | 0.484 | 0.494 | 0.549 | 0.515 | 0.491 | 0.439 | 0.477
NCI-H3122 | 0.402 | 0.4 | 0.51 | 0.461 | 0.485 | 0.382 | 0.361 | 0.389 | 0.356 | 0.338 | 0.211 | 0.181 | 0.202 | 0.522 | 0.36 | 0.372 | 0.399 | 0.4
NCI-H322M | 0.65 | 0.686 | 0.625 | 0.651 | 0.517 | 0.786 | 0.69 | 0.64 | 0.586 | 0.438 | 0.43 | 0.463 | 0.388 | 0.52 | 0.454 | 0.521 | 0.465 | 0.291
NCI-H647 | 0.267 | 0.326 | 0.308 | 0.335 | 0.24 | 0.564 | 0.483 | 0.574 | 0.418 | 0.21 | 0.429 | 0.381 | 0.473 | 0.265 | 0.2 | 0.141 | 0.221 | 0.255
EMC-BAC-2 | 1.09 | 0.925 | 0.948 | 0.952 | 0.654 | 0.616 | 0.472 | 0.549 | 0.487 | 0.365 | 0.527 | 0.513 | 0.456 | 0.317 | 0.307 | 0.151 | 0.319 | 0.286
PC-14 | 0.253 | 0.249 | 0.158 | 0.179 | 0.0808 | 0.854 | 0.476 | 0.22 | 0.193 | 0.0975 | 0.726 | 0.589 | 0.157 | 0.598 | 0.542 | 0.554 | 0.478 | 0.191
201T | 0.835 | 0.863 | 0.844 | 0.842 | 0.828 | 0.438 | 0.442 | 0.424 | 0.411 | 0.358 | 0.699 | 0.676 | 0.652 | 0.927 | 0.992 | 1.01 | 0.92 | 0.938
LXF-289 | 0.396 | 0.418 | 0.358 | 0.367 | 0.301 | 0.536 | 0.523 | 0.55 | 0.493 | 0.408 | 0.717 | 0.812 | 0.578 | 0.242 | 0.241 | 0.215 | 0.176 | 0.193

— the supplement of paper PMC10307832
